Source: patent publication US6410740B1, “Heterocyclylmethyl-substituted pyrazol derivatives” (Bayer Aktiengesellschaft, priority 1996, dated 2002)
pIC50: −log10 of the molar value. Where two headings read alike, the source gives them in different places.

Legend:
[1] = system: rabbit aortic rings precontracted with phenylephrine; assay: Vessel-relaxing action in vitro on isolated aortic rings precontracted with phenylephrine; conditions: rabbit aorta rings, phenylephrine contraction
Description: Vessel-relaxing Action in vitro
Rings 1.5 mm wide of an aorta isolated from a rabbit are introduced individually, under pretension, in 5 ml organ baths with Krebs-Henseleit solution warmed to 37° C. and gassed with carbogen. The contraction force is amplified and digitalized and recorded in parallel on a line recorder. To generate a contraction, phenylephrine is added cumulatively to the bath in an increasing concentration.
(§1) After several control cycles, the substance to be investigated is investigated in each further pass in each case in an increasing dosage, and a comparison is made with the level of the contraction achieved in the last preliminary pass. The concentration necessary to reduce the level of the control value by 50% (IC50) is calculated from this. The standard application volume is 5 μl.
as §1, with “this.” for “this. The standard application volume is 5 μl.”
The standard application volume is 5 μl.

[2] = target: T1, soluble guanylate cyclase (Sus scrofa, UniProt A0A4X1U7N1+A0ACM8Q7I6); assay: Stimulation of soluble guanylate cyclase in primary endothelial cells (intracellular cGMP, radioimmunological); type: cell-based; conditions: test substance 1 μM, 10-minute incubation, primary pig aortic endothelial cells, with or without SNP 1 μM (not stated which); for activation at 1 µM: 10 min, read-out: % increase in cGMP
T1 construct: endogenous in cells; host or cells: primary endothelial cells from pig aorta
T1 sequence (A0A4X1U7N1 1-619): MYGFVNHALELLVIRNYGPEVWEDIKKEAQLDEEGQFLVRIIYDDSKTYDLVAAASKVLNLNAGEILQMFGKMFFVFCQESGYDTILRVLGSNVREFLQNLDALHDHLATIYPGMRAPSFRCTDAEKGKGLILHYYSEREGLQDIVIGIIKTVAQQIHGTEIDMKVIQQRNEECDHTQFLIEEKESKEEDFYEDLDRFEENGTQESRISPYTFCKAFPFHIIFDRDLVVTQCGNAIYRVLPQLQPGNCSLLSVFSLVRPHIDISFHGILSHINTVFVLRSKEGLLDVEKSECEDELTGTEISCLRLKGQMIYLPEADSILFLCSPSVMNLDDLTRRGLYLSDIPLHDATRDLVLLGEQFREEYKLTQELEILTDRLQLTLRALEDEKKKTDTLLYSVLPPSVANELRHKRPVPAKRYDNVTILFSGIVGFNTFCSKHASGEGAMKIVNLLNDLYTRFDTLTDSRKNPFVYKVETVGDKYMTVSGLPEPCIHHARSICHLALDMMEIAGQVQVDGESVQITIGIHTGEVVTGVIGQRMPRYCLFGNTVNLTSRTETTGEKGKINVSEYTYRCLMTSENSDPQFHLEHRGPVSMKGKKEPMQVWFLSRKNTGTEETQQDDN
T1 sequence (A0ACM8Q7I6 1-688): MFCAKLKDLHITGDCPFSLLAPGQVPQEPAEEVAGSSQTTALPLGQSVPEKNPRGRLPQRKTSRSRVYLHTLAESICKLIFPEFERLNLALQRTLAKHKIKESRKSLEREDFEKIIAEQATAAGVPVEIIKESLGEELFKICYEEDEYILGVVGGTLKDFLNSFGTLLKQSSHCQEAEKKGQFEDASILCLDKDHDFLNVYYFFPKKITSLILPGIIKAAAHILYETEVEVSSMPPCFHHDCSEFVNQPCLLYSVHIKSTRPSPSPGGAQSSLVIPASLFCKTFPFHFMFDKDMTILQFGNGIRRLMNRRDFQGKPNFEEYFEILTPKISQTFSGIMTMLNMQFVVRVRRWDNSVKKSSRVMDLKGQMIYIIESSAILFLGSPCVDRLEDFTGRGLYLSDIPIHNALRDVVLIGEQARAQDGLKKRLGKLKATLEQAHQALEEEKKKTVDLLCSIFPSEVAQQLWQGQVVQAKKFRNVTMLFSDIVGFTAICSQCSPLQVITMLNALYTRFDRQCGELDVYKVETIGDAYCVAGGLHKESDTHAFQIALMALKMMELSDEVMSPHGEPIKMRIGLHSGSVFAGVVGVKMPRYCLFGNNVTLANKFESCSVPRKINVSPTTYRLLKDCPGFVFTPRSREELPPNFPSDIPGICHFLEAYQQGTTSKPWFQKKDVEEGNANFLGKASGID
Description: Stimulation of Soluble Guanylate Cyclase in Primary Endothelial Cells
(§2) Primary endothelial cells were isolated from pig aortas by treatment with collagenase solution. The cells were then cultured in a culture medium until confluence was reached. For the investigations, the cells were subjected to passaging, sown in cell culture plates and subcultured until confluence was reached. To stimulate the endothelial guanylate cyclase, the culture medium was suctioned off and the cells were washed once with Ringer's solution and incubated in stimulation buffer with or without an NO donor (sodium nitroprusside, SNP, 1 μM). Thereafter, the test substances (final concentration 1 μM) were pipetted onto the cells. At the end of the 10-minute incubation period, the buffered solution was suctioned off and the cells were lysed at −20° C. for 16 hours. The intracellular cGMP was then determined radioimmunologically.
as §2, with “sucked” for “suctioned”
as §2, with “without” for “without an”, “buffer” for “buffered”

[3] = Oryctolagus cuniculus, embodiment II
[4] = Oryctolagus cuniculus, embodiment III
[5] = Oryctolagus cuniculus, iv, embodiment IV

| SMILES | pIC50 [1, 3] | activation at 1 µM ([2]; embodiment II) [%] | also measured |
| --- | --- | --- | --- |
| OCc1cccc(-c2nn(Cc3ccccc3)c3ccccc23)n1 [II-36, 1-Benzyl-3-(6-hydroxymethyl-2-pyridyl)indazole] | 4.89 | 225 |  |
| Cc1cnc(-c2nn(Cc3ccccc3)c3ccccc23)nc1C [II-38, 1-Benzyl-3-(4,5-dimethyl-2-pyrimidyl)indazole] | 4.96 | > 1000 |  |
| c1ccc(Cn2nc(-c3ncccn3)c3ccccc32)cc1 [II-39] | 4.96 | 909 |  |
| Fc1ccccc1Cn1nc(-c2ncccn2)c2ccccc21 [II-40] | 4.62 | > 1000 |  |
| N#Cc1ccccc1Cn1nc(-c2ncccn2)c2ccccc21 [II-41] | 4.89 | 557 |  |
| Cc1ccnc(-c2nn(Cc3ccccc3)c3ccccc23)n1 [II-42] | 5.00 | 611 |  |
| Cc1cnc(-c2nn(Cc3ccccc3F)c3ccccc23)nc1C [II-43] |  | > 1000 |  |
| Cc1cnc(-c2nn(Cc3ccccc3C#N)c3ccccc23)nc1C [II-44] |  | > 1000 |  |
| CCOC(OCC)c1nc(-c2nn(Cc3ccccc3)c3ccccc23)ncc1C [II-45] |  | 326 |  |
| Cc1nc(-c2nn(Cc3ccccc3)c3ccccc23)nc(C)c1C [II-46] |  | 390 |  |
| Cc1nc(-c2nn(Cc3ccccc3)c3ccccc23)nc(C)c1Cl [II-47] |  | 240 |  |
| CNc1nc(-c2nn(Cc3ccccc3)c3ccccc23)ncc1Cl [II-48] | 4.89 | > 1000 |  |
| N#Cc1cnc(-c2nn(Cc3ccccc3)c3ccccc23)nc1N [II-49] | 4.19 | > 1000 |  |
| Clc1nccc(-c2nn(Cc3ccccc3)c3ccccc23)n1 [II-50] | < 4.51 | 116 |  |
| Cc1cc(-c2nn(Cc3ccccc3)c3ccccc23)nc(Cl)n1 [II-51] | < 4.52 |  |  |
| OCCNc1nccc(-c2nn(Cc3ccccc3)c3ccccc23)n1 [II-52] | 4.85 | 397 |  |
| Nc1nccc(-c2nn(Cc3ccccc3)c3ccccc23)n1 [II-53] | 4.74 | 428 |  |
| c1ccc(Cn2nc(-c3cnccn3)c3ccccc32)cc1 [II-55] | < 4.46 |  |  |
| Cc1cncc(-c2nn(Cc3ccccc3)c3ccccc23)n1 [II-56] | < 4.48 | 233 |  |
| c1ccc(Cn2nc(-c3ccccn3)c3ccccc32)cc1 [II-58] |  | 271 |  |
| Cc1nc(-c2nn(Cc3ccccc3)c3ccccc23)oc1CO [III-75] |  |  | pIC50 [1, 4]: 5.66; activation at 1 µM ([2]; embodiment III): > 1000% |

| SMILES | pIC50 [1, 3] | activation at 1 µM ([2]; embodiment II) [%] | also measured |
| --- | --- | --- | --- |
| OCc1nnc(-c2nn(Cc3ccccc3F)c3ccccc23)o1 [III-76] |  |  | pIC50 ([1]; embodiment III): 5.13; % increase in cGMP ([2]; embodiment III): 397% |
| CC(=O)OCc1oc(-c2nn(Cc3ccccc3)c3ccccc23)nc1C [III-77] |  |  | pIC50 [1, 4]: 5.08; activation at 1 µM ([2]; embodiment III): > 1000% |
| CC(=O)OCc1nnc(-c2nn(Cc3ccccc3F)c3ccccc23)o1 [III-78] |  |  | pIC50 [1, 4]: 5.00; activation at 1 µM ([2]; embodiment III): 223% |
| OCc1nnc(-c2nn(Cc3ccccc3F)c3ccccc23)o1 [III-79] |  |  | pIC50 [1, 4]: 4.89; % increase in cGMP ([2]; embodiment III): 124% |
| Cc1coc(-c2nn(Cc3ccccc3F)c3ccccc23)n1 [III-80] |  |  | pIC50 [1, 4]: 5.44; activation at 1 µM ([2]; embodiment III): > 1000% |
| OCc1nnc(-c2nn(Cc3ccccc3)c3ccccc23)o1 [III-81] |  |  | pIC50 [1, 4]: 4.92; activation at 1 µM ([2]; embodiment III): 110% |
| OCc1csc(-c2nn(Cc3ccccc3)c3ccccc23)n1 [III-82] |  |  | pIC50 [1, 4]: 4.82; activation at 1 µM ([2]; embodiment III): 455% |
| c1ccc(Cn2nc(-c3ncco3)c3ccccc32)cc1 [III-87] |  |  | pIC50 [1, 4]: 4.72; activation at 1 µM ([2]; embodiment III): 268% |
| CCc1coc(-c2nn(Cc3ccccc3)c3ccccc23)n1 [III-88] |  |  | pIC50 [1, 4]: 5.15 |
| COCc1oc(-c2nn(Cc3ccccc3)c3ccccc23)nc1C [III-90] |  |  | pIC50 [1, 4]: 5.39 |
| CCOCc1oc(-c2nn(Cc3ccccc3)c3ccccc23)nc1C [III-91] |  |  | activation at 1 µM ([2]; embodiment III): 479% |
| OCc1cnc(-c2nn(Cc3ccccc3)c3ccccc23)s1 [III-92] |  |  | activation at 1 µM ([2]; embodiment III): 319% |
| CCOC(=O)c1coc(-c2nn(Cc3ccccc3)c3ccccc23)n1 [III-93] |  |  | activation at 1 µM ([2]; embodiment III): 271% |
| OCc1cnc(-c2nn(Cc3ccccc3F)c3ccccc23)s1 [III-95] |  |  | pIC50 [1, 4]: 5.62 |
| O=Cc1ccc(-c2nn(Cc3ccccc3)c3ccccc23)o1 [IV-138, 1-Benzyl-3-(5-formylfuran-2-yl)-indazole] |  |  | activation at 1 µM ([2]; embodiment IV): 324% |
| CC(O)c1ccc(-c2nn(Cc3ccccc3)c3ccccc23)o1 (centres unmarked) [IV-139, 1-[5-(1-Benzylindazol-3-yl)-furan-2-yl]-ethanol] |  |  | pIC50 [1, 5]: 4.92; activation at 1 µM ([2]; embodiment IV): 723% |
| CC(=O)c1ccc(-c2nn(Cc3ccccc3)c3ccccc23)o1 [IV-140, 3-(5-Acetylfuran-2-yl)-1-benzyl-indazole] |  |  | pIC50 [1, 5]: 4.77 to 4.92; activation at 1 µM ([2]; embodiment IV): 619% |
| O=[N+]([O-])c1ccc(-c2nn(Cc3ccccc3)c3ccccc23)o1 [IV-143, 1-Benzyl-3-(5-nitrofuran-2-yl)-indazole] |  |  | activation at 1 µM ([2]; embodiment IV): > 1000% |
| O=Cc1ccc(-c2nn(Cc3ccc(F)cc3)c3ccccc23)o1 [IV-148] |  |  | pIC50 [1, 5]: 5.17; activation at 1 µM ([2]; embodiment IV): 978% |
| O/N=C/c1ccc(-c2nn(Cc3ccccc3)c3ccccc23)o1 [IV-153] |  |  | pIC50 [1, 5]: 5.04; activation at 1 µM ([2]; embodiment IV): 341% |
| N#Cc1cccc(Cn2nc(-c3ccc(CO)o3)c3ccccc32)c1 [IV-166] |  |  | pIC50 [1, 5]: 4.74 |

Now from value to compound, other results behind:

| pIC50 [1, 3] | activation at 1 µM ([2]; embodiment II) [%] | SMILES | also measured |
| --- | --- | --- | --- |
| < 4.48 | 268 | Cc1cccc(-c2nn(Cc3ccccc3)c3ccccc23)n1 [II-59] |  |
| < 4.52 |  | Cc1cc(C)c(C#N)c(-c2nn(Cc3ccccc3)c3ccccc23)n1 [II-60] |  |
| < 4.52 |  | Cc1cc(Cl)cc(-c2nn(Cc3ccccc3)c3ccccc23)n1 [II-61] |  |
